Data published in patent US9926304B2, “1-(arylmethyl)quinazoline-2,4(1H,3H)-diones as PARP inhibitors and the use thereof” (Impact Therapeutics, Inc., priority 2011, dated 2018).
Where two headings read alike, the source gives them in different places.

Tests used:
[1] = test system: Human breast cancer cell line T47D; experiment: Cell based caspase-3 activity assay: potentiation of MMS induced apoptosis; details: T47D cells, 11.1 μg/ml MMS, 24 hours, intracellular caspase-3 activity, read-out: EC50 (nM), potentiation of the apoptosis inducing activity of MMS
How it was run: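 T47D cells were exposed for 24 h to compound plus a minimally apoptotic MMS dose (medium containing 11.1 μg/ml MMS). Lysates were incubated 3 h at 37 °C with (Ac-DEVD)2-R110 caspase-3 substrate (20 μM in added buffer) and read at ex 496/em 520 nm. EC50 came from a sigmoidal fit of RFU versus log concentration.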

[2] = test system: SW620 human colorectal cancer cells; experiment: MTT based cell viability assay: potentiation of the growth inhibiting activity of MMS
[3] = Homo sapiens, SW-620, 120 h, read-out: IC50 (nM), potentiation of the growth inhibiting activity of MMS, SW620 cells, 1.7 μg/ml MMS, 5 days (120 hours), MTT
[4] = read-out: IC50 (nM), potentiation of the growth inhibiting activity of MMS, SW620 cells, 1.7 μg/ml MMS, 5 days (120 hours), MTT

EC50 ([1]; Homo sapiens, T47D, 24 h) [nM] | IC50 [2, 3] [nM] | EC50 [1] [nM] | IC50 [2, 4] [nM] | Compound
> 10000 | > 10000 | – | – | COC(=O)c1cccc(Cn2c(=O)[nH]c(=O)c3ccccc32)c1 [Example 1, 1-(3-Methoxycarbonylbenzyl)quinazoline-2,4(1H,3H)-dione]
> 10000 | > 10000 | – | – | O=C(NCc1cccc(Cl)c1)c1cc(Cn2c(=O)[nH]c(=O)c3c(F)cccc32)ccc1F [Example 201, 1-(3-(3-Chlorobenzylcarbamoyl)-4-fluorobenzyl)-5-fluoroquinazoline-2,4(1H,3H)-dione]
294 | 103 | – | – | COc1ccc2c(=O)[nH]c(=O)n(Cc3cccc(C(=O)N4CCN(c5ncccn5)CC4)c3)c2c1 [Example 209, 7-Methoxy-1-(3-(4-(pyrimidin-2-yl)piperazine-1-carbonyl)benzyl)quinazoline-2,4(1H,3H)-dione]
2.1 | 6.2 | – | – | O=C(c1ccccc1)N1CCN(C(=O)c2cc(Cn3c(=O)[nH]c(=O)c4cc(Cl)ccc43)ccc2F)CC1 [Example 164, 6-Chloro-1-(3-(4-benzoylpiperazine-1-carbonyl)-4-fluorobenzyl)quinazoline-2,4(1H,3H)-dione]
67 | 137 | – | – | O=C(c1cccc(Cn2c(=O)[nH]c(=O)c3cc(Br)ccc32)c1)N1CCN(c2ncccn2)CC1 [Example 88, 6-Bromo-1-(3-(4-(pyrimidin-2-yl)piperazine-1-carbonyl)benzyl)quinazoline-2,4(1H,3H)-dione]
445 | 481 | – | – | Nc1ccc2c(c1)c(=O)[nH]c(=O)n2Cc1cccc(C(=O)N2CCN(c3ncccn3)CC2)c1 [Example 219, 6-Amino-1-(3-(4-(pyrimidin-2-yl)piperazine-1-carbonyl)benzyl)quinazoline-2,4(1H,3H)-dione]
8.8 | 42 | – | – | O=C(c1cc(Cn2c(=O)[nH]c(=O)c3cc(Cl)ccc32)ccc1F)N1CCN(c2ccccn2)CC1 [Example 120, 6-Chloro-1-(4-fluoro-3-(4-(pyridin-2-yl)piperazine-1-carbonyl)benzyl)quinazoline-2,4(1H,3H)-dione]
43 | 120 | – | – | O=C(c1ccc(F)c(Cn2c(=O)[nH]c(=O)c3c(Cl)cccc32)c1)N1CCN(C(=O)C2CCC2)CC1 [Example 170, 5-Chloro-1-(3-(4-(cyclobutylcarbonyl)piperazine-1-carbonyl)-6-fluorobenzyl)quinazoline-2,4(1H,3H)-dione]
27 | 35 | – | – | O=C(c1cccc(Cn2c(=O)[nH]c(=O)c3cc(Br)ccc32)c1)N1CCN(C(=O)C2CCCC2)CC1 [Example 87, 6-Bromo-1-(3-(4-(cyclopentylcarbonyl)piperazine-1-carbonyl)benzyl)quinazoline-2,4(1H,3H)-dione]
124 | 217 | – | – | O=C(c1ccc(F)c(Cn2c(=O)[nH]c(=O)c3ccccc32)c1)N1CCN(C(=O)c2ccco2)CC1 [Example 54, 1-(6-Fluoro-3-(4-(furan-2-carbonyl)piperazine-1-carbonyl)benzyl)quinazoline-2,4(1H,3H)-dione]
18 | 59 | – | – | O=C(c1ccc(F)c(Cn2c(=O)[nH]c(=O)c3ccccc32)c1)N1CCN(C(=O)C2CCC2)CC1 [Example 53, 1-(3-(4-(Cyclobutylcarbonyl)piperazine-1-carbonyl)-6-fluorobenzyl)quinazoline-2,4(1H,3H)-dione]
68 | 78 | – | – | O=C(c1ccc(F)c(Cn2c(=O)[nH]c(=O)c3c(Cl)cccc32)c1)N1CCN(C(=O)C2CCCCC2)CC1 [Example 108, 5-Chloro-1-(3-(4-(cyclohexylcarbonyl)piperazine-1-carbonyl)-6-fluorobenzyl)quinazoline-2,4(1H,3H)-dione]
604 | 991 | – | – | O=C(c1cc(Cn2c(=O)[nH]c(=O)c3ccccc32)ccc1Cl)N1CCN(C(=O)C2CCCCC2)CC1 [Example 66, 1-(4-Chloro-3-(4-(cyclohexylcarbonyl)piperazine-1-carbonyl)benzyl)quinazoline-2,4(1H,3H)-dione]
– | – | 2.3 | 2.1 | 1-(3-(4-(Cyclopentylcarbonyl)piperazine-1-carbonyl)-4-fluorobenzyl)-6-fluoroquinazoline-2,4(1H,3H)-dione [Example 148]
> 10000 | > 10000 | – | – | O=C(c1ccccc1Cn1c(=O)[nH]c(=O)c2ccccc21)N1CCN(c2ncccn2)CC1 [Example 220, 1-(2-(4-(Pyrimidin-2-yl)piperazine-1-carbonyl)benzyl)quinazoline-2,4(1H,3H)-dione]
112 | 2600 | – | – | O=C(c1cccc(Cn2c(=O)[nH]c(=O)c3ccccc32)c1)N1CCC(c2noc3cc(F)ccc23)CC1 [Example 31, 1-(3-(4-(6-Fluorobenzo[d]isoxazol-3-yl)piperidine-1-carbonyl)benzyl)quinazoline-2,4(1H,3H)-dione]

EC50 ([1]; Homo sapiens, T47D, 24 h) [nM] | IC50 [2, 3] [nM] | EC50 [1] [nM] | IC50 [2, 4] [nM] | Compound
> 10000 | 985 | – | – | O=C(Cc1ccc2ccccc2c1)Nc1cccc(Cn2c(=O)[nH]c(=O)c3ccccc32)c1 [Example 196, 1-(3-(Naphthalen-2-yl)acetamidobenzyl)quinazoline-2,4(1H,3H)-dione]
> 10000 | > 10000 | – | – | O=C(c1ccc(Cn2c(=O)[nH]c(=O)c3ccccc32)cc1)N1CCN(C(=O)C2CCCC2)CC1 [Example 99, 1-(4-(4-(Cyclopentylcarbonyl)piperazine-1-carbonyl)benzyl)quinazoline-2,4(1H,3H)-dione]
1.6 | 4 | – | – | O=C(c1cc(Cn2c(=O)[nH]c(=O)c3c(F)cccc32)ccc1F)N1CCN(C(=O)C2CCC2)CC1 [Example 166, 1-(3-(4-(Cyclobutylcarbonyl)piperazine-1-carbonyl)-4-fluorobenzyl)-5-fluoroquinazoline-2,4(1H,3H)-dione]
1 | 3.4 | – | – | O=C(c1cc(Cn2c(=O)[nH]c(=O)c3cc(Cl)ccc32)ccc1F)N1CCN(C(=O)C2CCC2)CC1 [Example 169, 6-Chloro-1-(3-(4-(cyclobutylcarbonyl)piperazine-1-carbonyl)-4-fluorobenzyl)quinazoline-2,4(1H,3H)-dione]
32 | 72 | – | – | O=C(c1ccc(F)c(Cn2c(=O)[nH]c(=O)c3c(Cl)cccc32)c1)N1CCN(c2ncccn2)CC1 [Example 110, 5-Chloro-1-(6-fluoro-3-(4-(pyrimidin-2-yl)piperazine-1-carbonyl)benzyl)quinazoline-2,4(1H,3H)-dione]
– | – | 2 | 9.2 | 1-(3-(4-(Cyclopentylcarbonyl)piperazine-1-carbonyl)-6-fluorobenzyl)-6-fluoroquinazoline-2,4(1H,3H)-dione [Example 153]
3.2 | 2.6 | – | – | O=C(c1cccc(Cn2c(=O)[nH]c(=O)c3cccc(O)c32)c1)N1CCN(c2ncccn2)CC1 [Example 230, 8-Hydroxy-1-(3-(4-(pyrimidin-2-yl)piperazine-1-carbonyl)benzyl)quinazoline-2,4(1H,3H)-dione]
> 10000 | > 10000 | – | – | O=C(O)c1cccc(Cn2c(=O)[nH]c(=O)c3ccccc32)c1 [Example 2, 1-(3-Carboxybenzyl)quinazoline-2,4(1H,3H)-dione]
> 10000 | > 10000 | – | – | COc1cccc2c1c(=O)[nH]c(=O)n2Cc1cccc(C(=O)N2CCN(c3ncccn3)CC2)c1 [Example 203, 5-Methoxy-1-(3-(4-(pyrimidin-2-yl)piperazine-1-carbonyl)benzyl)quinazoline-2,4(1H,3H)-dione]
274 | 1110 | – | – | O=C(c1cccc(Cn2c(=O)[nH]c(=O)c3cccc(Cl)c32)c1)N1CCN(c2ncccn2)CC1 [Example 224, 8-Chloro-1-(3-(4-(pyrimidin-2-yl)piperazine-1-carbonyl)benzyl)quinazoline-2,4(1H,3H)-dione]
11 | 7.9 | – | – | O=C(c1cc(Cn2c(=O)[nH]c(=O)c3cc(F)ccc32)ccc1F)N1CCN(C(=O)C2CC2)CC1 [Example 178, 1-(3-(4-(Cyclopropylcarbonyl)piperazine-1-carbonyl)-4-fluorobenzyl)-6-fluoroquinazoline-2,4(1H,3H)-dione]
635 | 673 | – | – | O=C(c1ccc(Cn2c(=O)[nH]c(=O)c3ccccc32)o1)N1CCN(c2nsc3ccccc23)CC1 [Example 68, 1-((2-(4-(Benzo[d]isothiazol-3-yl)piperazine-1-carbonyl)furan-5-yl)methyl)quinazoline-2,4(1H,3H)-dione]
267 | > 10000 | – | – | O=C(c1ccncc1)N1CCN(C(=O)c2cccc(Cn3c(=O)[nH]c(=O)c4ccccc43)c2)CC1 [Example 38, 1-(3-(4-(Pyridine-4-carbonyl)piperazine-1-carbonyl)benzyl)quinazoline-2,4(1H,3H)-dione]
24 | 37 | – | – | COc1ccc(C(=O)N2CCN(c3ncccn3)CC2)cc1Cn1c(=O)[nH]c(=O)c2c(F)cccc21 [Example 208, 5-Fluoro-1-(6-methoxy-3-(4-(pyrimidin-2-yl)piperazine-1-carbonyl)benzyl)quinazoline-2,4(1H,3H)-dione]
1.4 | 3.1 | – | – | O=C(c1cc(Cn2c(=O)[nH]c(=O)c3cc(F)ccc32)ccc1F)N1CCN(C(=O)C2CCC2)CC1 [Example 180, 1-(3-(4-(Cyclobutylcarbonyl)piperazine-1-carbonyl)-4-fluorobenzyl)-6-fluoroquinazoline-2,4(1H,3H)-dione]
